Values quoted from earlier work, collected in US20050214675A1, “Positive-type photosensitive composition” (FUJI PHOTO FILM CO., LTD., priority 2004, published 2005).
Where two headings read alike, the source gives them in different places.

Details: for Hammett value: cation of the sulfonium salt used in the plate, third embodiment Tables 1 to 4; for σ (sum of Hammett values of substituents on the aryl skeletons of the cation): o-position treated as p-position
[1] = compound list of first embodiment
[2] = compound list of second embodiment

SMILES: O=C(O)c1c2ccccc2cc2ccccc12 [(28)]
- Hammett value: 0

SMILES: O=S(=O)(O)c1ccc(O)cc1 [(68)]
- Hammett value: 0.69

SMILES: O=Cc1ccccc1S(=O)(=O)O [(72)]
- Hammett value: 0.69

SMILES: COC(=O)c1cc(C(=O)OC)cc(S(=O)(=O)O)c1 [(75)]
- Hammett value: 0.69

SMILES: O=C(O)c1cc(C(=O)O)cc(S(=O)(=O)O)c1 [(76)]
- Hammett value: 0.69

SMILES: COc1cc(O)c(C(=O)c2ccccc2)cc1S(=O)(=O)O [(77)]
- Hammett value: 0.69

SMILES: Cc1ccc([S+](c2ccc(Cl)cc2)c2ccc(Cl)cc2)cc1 [(84)]
- σ (sum of Hammett values of substituents on the aryl skeletons of the cation) [1]: 0.29
- σ (sum of Hammett values of substituents on the aryl skeletons of the cation) [2]: 0.29

SMILES: CC(C)(C)c1ccc([S+](c2ccc(Cl)cc2)c2ccc(Cl)cc2)cc1 [(85)]
- σ (sum of Hammett values of substituents on the aryl skeletons of the cation) [1]: 0.26
- σ (sum of Hammett values of substituents on the aryl skeletons of the cation) [2]: 0.26

SMILES: CC(C)(C)c1ccc([S+](c2ccc(C(C)(C)C)cc2)c2ccc(C(C)(C)C)cc2)cc1 [(86)]
- σ (sum of Hammett values of substituents on the aryl skeletons of the cation) [1]: −0.59
- σ (sum of Hammett values of substituents on the aryl skeletons of the cation) [2]: −0.59

SMILES: Fc1ccc([S+](c2ccc(F)cc2)c2ccc(F)cc2)cc1 [(87)]
- σ (sum of Hammett values of substituents on the aryl skeletons of the cation) [1]: 0.186
- σ (sum of Hammett values of substituents on the aryl skeletons of the cation) [2]: 0.186

SMILES: COc1ccc([S+](c2ccc(OC)cc2)c2ccc(OC)cc2)cc1 [(88)]
- σ (sum of Hammett values of substituents on the aryl skeletons of the cation) [1]: −0.804
- σ (sum of Hammett values of substituents on the aryl skeletons of the cation) [2]: −0.804

SMILES: Cc1ccc([S+](c2ccc(C)cc2)c2cc(C)c(O)c(C)c2)cc1 [(89)]
- σ (sum of Hammett values of substituents on the aryl skeletons of the cation) [1]: −0.848
- σ (sum of Hammett values of substituents on the aryl skeletons of the cation) [2]: −0.848
